Data from ChEMBL document CHEMBL1201862, “PubChem BioAssay data set” (2004).
Active and inactive are the calls of the source. Rule as the data show it, for most assays here: actives have a measured EC50 and inactives only a lower limit.

How the values were obtained:
Cytochrome P450 2C9 = Cytochrome P450 2C9 (Homo sapiens, UniProt P11712)
[1] = tested on: Streptococcus sp. 'group A'; assay: growth inhibition of control SK(-) GAS strain, dose response, counter-screen for streptokinase expression inhibitor project, luminescence, kanamycin, BacTiterGlo, confirmation (AID 1900); format: functional, organism-based
Streptokinase A = biological target: T1, Streptokinase A (Streptococcus pyogenes serotype M1, UniProt P10520); assay: S. pyogenes streptokinase expression inhibitors, potency, dose response, plasminogen activation absorbance, OD405 (AID 1914); format: functional, Streptococcus pyogenes M1 GAS;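 also: secreted streptokinase activity via plasminogen activation per viability signal from cell pellet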
T1 sequence (P10520 whole entry): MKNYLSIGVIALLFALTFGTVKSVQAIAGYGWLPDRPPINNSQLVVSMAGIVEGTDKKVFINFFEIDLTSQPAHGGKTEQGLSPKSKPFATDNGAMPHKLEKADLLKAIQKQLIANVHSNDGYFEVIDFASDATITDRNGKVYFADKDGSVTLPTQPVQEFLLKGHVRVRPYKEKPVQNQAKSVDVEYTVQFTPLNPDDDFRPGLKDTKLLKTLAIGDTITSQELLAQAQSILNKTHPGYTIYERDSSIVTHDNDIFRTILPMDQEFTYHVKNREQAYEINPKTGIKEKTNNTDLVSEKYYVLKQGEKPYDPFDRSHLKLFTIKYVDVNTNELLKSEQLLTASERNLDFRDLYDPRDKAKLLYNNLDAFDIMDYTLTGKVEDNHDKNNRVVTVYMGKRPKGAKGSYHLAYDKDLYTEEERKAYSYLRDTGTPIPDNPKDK

Streptococcus = assay: Group A Streptococcus viability loss, dose response, counter-screen for streptokinase expression inhibitor project, luminescence, BacTiterGlo (AID 1915); format: functional, organism-based;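 also: potency for reduction of bacterial viability or growth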
[2] = NIH-3T3 fibroblast cytotoxicity, dose response, cytotoxicity control, cell-based, fluorescence, Alamar Blue, secondary assay (AID 2327); format: functional;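 also: NIH-3T3 mouse fibroblasts cultured with fluconazole at 8 µg/mL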
[3] = C. albicans growth with fluconazole, confirmation, fluorescence, retest (AID 2467); format: functional, cell-based
INS1 = assay: beta cell apoptosis inhibitors, cytokine rescue, dose response, luminescence, retest (AID 449756); format: functional, cell-based; details: Rattus norvegicus;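 also: cell death triggered by IL-1 beta plus TNF-alpha plus IFN-gamma mixture; protective hits raise ATP signal compared with cytokine alone wells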
[4] = inhibitors of intracellular T. cruzi replication, confirmation, NIH3T3 host cells, beta-gal luminescence (AID 2044); format: functional, cell-based;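 also: intracellular parasites grown in NIH/3T3 mouse fibroblasts as host cells; luminescent beta-galactosidase reporter signal from transgenic T. cruzi replicating inside host cells; inhibitors lower the luminescence signal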
[5] = cytotoxicity toward NIH3T3 fibroblasts, dose response, counter-screen, cell-based, ATP luminescence, mouse fibroblasts (AID 2010); format: functional;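 also: cells exposed to compound for about 90 hours before reading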
[6] = Luminescence Cell-Based Dose Retest to Confirm Inhibitors of Cancer Stem Cells. [Related pubchem assays (depositor defined):AID2717, AID2721]; format: functional; details: Homo sapiens
[7] = biological target: T2, Corticotropin-releasing factor receptor 2/Corticotropin-releasing factor-binding protein (Homo sapiens, UniProt P24387+Q13324); assay: activators of CRF receptor 2 with binding protein – uHTS hits, confirmation (AID 602473); format: functional; details: read-out: EC50_Mean
T2 sequence (Q13324 whole entry): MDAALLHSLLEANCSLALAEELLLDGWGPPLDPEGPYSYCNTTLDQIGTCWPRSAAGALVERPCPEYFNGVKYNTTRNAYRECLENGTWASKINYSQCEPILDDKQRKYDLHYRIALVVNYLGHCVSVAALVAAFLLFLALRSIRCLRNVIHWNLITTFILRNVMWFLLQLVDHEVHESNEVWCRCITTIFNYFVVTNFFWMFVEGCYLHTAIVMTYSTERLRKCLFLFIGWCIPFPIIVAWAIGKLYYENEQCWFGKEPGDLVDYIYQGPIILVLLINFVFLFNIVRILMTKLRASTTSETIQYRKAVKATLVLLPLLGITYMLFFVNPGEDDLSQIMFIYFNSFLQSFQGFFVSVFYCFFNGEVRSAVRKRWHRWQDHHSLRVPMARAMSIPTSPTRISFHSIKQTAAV
T2 sequence (P24387 whole entry): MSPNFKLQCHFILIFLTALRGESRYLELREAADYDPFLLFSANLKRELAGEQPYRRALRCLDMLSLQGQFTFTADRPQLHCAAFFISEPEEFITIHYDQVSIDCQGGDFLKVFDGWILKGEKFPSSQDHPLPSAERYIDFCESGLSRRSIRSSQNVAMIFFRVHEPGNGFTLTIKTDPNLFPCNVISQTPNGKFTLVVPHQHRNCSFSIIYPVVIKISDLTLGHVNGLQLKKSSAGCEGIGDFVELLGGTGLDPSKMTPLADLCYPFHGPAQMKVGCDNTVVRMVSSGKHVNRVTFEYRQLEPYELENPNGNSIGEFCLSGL

Chain of Cytochrome P450 2C9 (P11712 whole entry): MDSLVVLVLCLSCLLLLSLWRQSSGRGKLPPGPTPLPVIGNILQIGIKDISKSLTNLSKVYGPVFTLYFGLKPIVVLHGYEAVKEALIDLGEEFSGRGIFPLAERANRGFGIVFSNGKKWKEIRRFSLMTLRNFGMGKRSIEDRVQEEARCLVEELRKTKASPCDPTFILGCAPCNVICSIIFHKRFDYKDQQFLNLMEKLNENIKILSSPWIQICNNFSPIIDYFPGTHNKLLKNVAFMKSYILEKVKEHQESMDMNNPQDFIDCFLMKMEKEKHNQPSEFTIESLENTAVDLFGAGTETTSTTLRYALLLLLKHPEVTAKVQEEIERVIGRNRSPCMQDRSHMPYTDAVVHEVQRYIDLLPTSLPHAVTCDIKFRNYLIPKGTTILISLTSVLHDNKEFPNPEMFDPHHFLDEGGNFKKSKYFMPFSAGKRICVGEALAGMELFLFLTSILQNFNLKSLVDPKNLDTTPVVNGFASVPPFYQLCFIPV

COc1ccc2c(c1)c(CC(=O)O)c(C)n2Cc1ccc(Cl)cc1
AC50 (Cytochrome P450 2C9): 12.6 µM (inconclusive)

CC(C)CCOc1ccc(NC(=O)C2OC3OC(C)(C)OC3C3OC(C)(C)OC23)cc1 (configuration not stated)
AC50 (Cytochrome P450 2C9): 25.1 µM (inconclusive)

CC1(C)S[C@@H]2[C@H](NC(=O)COc3ccccc3)C(=O)N2C1C(=O)OCc1ccccc1 (some centres not stated)
EC50 [1]: 1.42 µM (active) | EC50 (Streptokinase A): > 150 µM (not active) | EC50 (Streptococcus): 2.56 µM (active)

Cc1cccc(NC(=O)NNC(=O)c2cc3ccccc3cc2O)c1C
EC50 [2]: 80.6 µM (active) | EC50 [3]: > 38 µM (not active)

CC(=O)c1ccccc1OCCOCCOc1ccccc1C(C)=O
AC50 (INS1): 31.1 µM (active)

COc1ccc(CN(C)CC(=O)c2c(N)n(Cc3ccccc3)c(=O)n(C)c2=O)c(OC)c1
EC50 [4]: 2.78 µM (active) | EC50 [5]: > 60 µM (not active)

COc1cc(OC)c(NC(S)=NCc2ccccc2)cc1Cl
EC50 [2]: > 160 µM (inactive) | EC50 [3]: > 38 µM (not active)

COc1ccc(/C=C/C2=CCN(Cc3ccc(OC)cc3)CC2)cc1
EC50 [4]: 3.17 µM (active) | EC50 [5]: > 60 µM (not active)

CSc1ccc(/C=C/c2ccc3cccc(O)c3n2)cc1
EC50 [1]: 0.693 µM (active) | EC50 (Streptococcus): 14 µM (active)

Cc1ccc(-n2c(N)c(-c3nc4ccccc4n3C)sc2=S)cc1
EC50 [1]: 39.6 µM (active) | EC50 (Streptokinase A): > 150 µM (not active) | EC50 (Streptococcus): > 150 µM (not active)

Cc1ccc2nc(N=C(NS(=O)(=O)c3ccc(F)cc3)c3ccccc3)sc2c1
EC50 [1]: 5.01 µM (active) | EC50 (Streptokinase A): > 50 µM (not active) | EC50 (Streptococcus): 10 µM (active)

CSc1cnc2c(N)nc(N(C)C)nc2n1
EC50 [2]: > 160 µM (inconclusive) | EC50 [3]: 2.63 µM (active)

CC(=O)c1c(O)cc(=O)n(-c2ccccc2)c1-c1cccc2ccccc12
AC50 (Cytochrome P450 2C9): 22.4 µM (inconclusive)

COc1cc(OC)c(C=O)c(OC(=O)N2CCOCC2)c1
AC50 [6]: > 195 µM (inactive)

O=C(c1ccc(O)cc1)c1ccc(C(=O)c2ccc(O)cc2)cc1
EC50 [1]: 2.84 µM (active) | EC50 (Streptokinase A): > 150 µM (not active) | EC50 (Streptococcus): 31.4 µM (active)

CCn1cc(C(=O)N[C@H](C)c2ccccc2)c(=O)c2cc(F)c(N3CCN(C)CC3)cc21
AC50 [6]: 0.796 µM (active)

CN1CCc2nc(SCc3ccc(C(C)(C)C)cc3)c(C#N)cc2C1
EC50 [4]: 0.465 µM (active) | EC50 [5]: 19 µM (active)

COc1ccccc1CNc1nc(-c2ccc(N(C)C)cc2)nc2ccccc12
AC50 (Cytochrome P450 2C9): 0.794 µM (inconclusive)

CC1(C)C=Cc2c(c3c(c4c(=O)c(-c5ccc(O)cc5)coc24)OC(C)(C)CC3)O1
AC50 [6]: 6.61 µM (active)

Cc1ccccc1CN(C)CC(=O)Nc1ccccc1-c1ccccc1
EC50 [1]: 7.65 µM (active) | EC50 (Streptokinase A): 23.3 µM (active) | EC50 (Streptococcus): > 150 µM (not active)

CC(=O)c1ccc(-c2cc([C@H]3[C@H]4C=CC[C@@H](C)[C@@H]4C(=O)N3Cc3ccccc3)ccc2F)cc1
AC50 [6]: 5.46 µM (active)

O=C(CSc1nnc(CNC(=O)c2ccccc2)o1)NCc1ccccc1
EC50 [1]: > 150 µM (not active) | EC50 (Streptokinase A): > 150 µM (not active) | EC50 (Streptococcus): > 150 µM (not active)

COc1ccc(C(=O)N2CCc3c([nH]c4ccccc34)C2C(F)(F)F)cc1 (configuration not stated)
EC50 [1]: > 150 µM (not active) | EC50 (Streptokinase A): > 150 µM (not active) | EC50 (Streptococcus): > 150 µM (not active)

COc1cc(OC)cc(C(=O)Nc2cccc(N3CCCC3)c2)c1
EC50 [4]: 3.33 µM (active) | EC50 [5]: > 30 µM (not active)

CC1(C)CC(=O)C2=C(C1)OC1=C(C(=O)CC(C)(C)C1)C2c1cc([N+](=O)[O-])cc([N+](=O)[O-])c1O
EC50 [2]: > 160 µM (inactive) | EC50 [3]: 0.221 µM (active)

Cn1c(=S)c2nc(SCc3cccnc3)[nH]c2n(C)c1=O
AC50 (Cytochrome P450 2C9): 6.31 µM (inconclusive)

CN1CCN(CCOc2ccc(Cl)c(Cl)c2)CC1
EC50 [4]: 0.516 µM (active) | EC50 [5]: > 60 µM (not active)

CC(C)Cc1ccc(C(C)C(=O)Nc2ccc(O)cc2)cc1 (configuration not stated)
EC50 [7]: 3.77 µM (active)

COc1cc2cc(C(=O)N3CCOCC3)cc(-c3ccc(C)cc3)c2cc1OC
AC50 (INS1): 6.42 µM (active)

CCCOc1ccc(NCC(=O)Nc2ccc(C)cc2C)cc1
EC50 [4]: 3.07 µM (active) | EC50 [5]: > 60 µM (not active)

Cc1ccc(NC(=S)N(CCCN2CCCC2)Cc2cccn2Cc2ccc(Cl)cc2)cc1Cl
AC50 [6]: 5.36 µM (active)

COc1ccc(CCC(C)NCC2CCCCC2)cc1 (configuration not stated)
AC50 [6]: 5.09 µM (active)

COc1ccc(S(=O)(=O)N2CCCCCC2)cc1N(C)S(=O)(=O)c1ccc(Cl)cc1
EC50 [4]: 2.21 µM (active) | EC50 [5]: > 60 µM (not active)

CC(C)(C)c1cc(C(=O)NNc2cccc(Cl)c2)n(Cc2ccccc2)n1
AC50 [6]: 1.34 µM (active)

O=c1c2ccccc2nc(SCCN2CCCCC2)n1CCc1ccccc1
EC50 [4]: 1.57 µM (active) | EC50 [5]: > 60 µM (not active)

COc1ccc(-n2c(=O)c3c4c(sc3n3c(S)nnc23)CCC4)cc1
EC50 [1]: 15.7 µM (active) | EC50 (Streptococcus): 17.4 µM (active)

Cc1ccc(-c2csc(-c3c[nH]c4ccccc34)n2)c(C)c1
EC50 [1]: 12 µM (active) | EC50 (Streptokinase A): > 150 µM (not active) | EC50 (Streptococcus): 7.96 µM (active) | AC50 [6]: 2.88 µM (active)

COc1cnc(-c2ccccn2)nc1Oc1ccc(C(C)(C)C)cc1
EC50 [1]: 12.4 µM (active) | EC50 (Streptokinase A): > 150 µM (not active) | EC50 (Streptococcus): 19.2 µM (active) | AC50 (INS1): 6.45 µM (active)

CN1CCN(CCCOc2ccc(-c3ccccc3)cc2)CC1
EC50 [4]: 0.988 µM (active) | EC50 [5]: 7.93 µM (active)

COc1ccccc1CNC(=O)C(=O)NCC1CCCN1S(=O)(=O)c1cccs1 (configuration not stated)
EC50 [4]: 2.54 µM (active) | EC50 [5]: > 60 µM (not active)

O=C(NCCc1ccccc1F)C1CCCN1S(=O)(=O)c1ccc2ccccc2c1 (configuration not stated)
EC50 [4]: 1.63 µM (active) | EC50 [5]: > 60 µM (not active)

O=[N+]([O-])c1ccc(CP(=O)(c2ccccc2)c2ccccc2)cc1
AC50 [6]: > 195 µM (inactive)

O=C(Nc1cccc(-c2csc(Nc3ccc(Cl)cc3)n2)c1)c1cc([N+](=O)[O-])cc(C(F)(F)F)c1
AC50 [6]: 1.56 µM (active)

Cc1ccc(NS(=O)(=O)c2ccc(NC(=O)c3ccccc3C(=O)O)cc2)c(C)c1
EC50 [4]: > 60 µM (not active) | EC50 [5]: > 60 µM (not active)

Cc1cc2oc(=O)cc(CN3CCN(S(=O)(=O)/C=C/c4ccccc4)CC3)c2cc1C
EC50 [4]: 2.02 µM (active) | EC50 [5]: > 60 µM (inconclusive)

CCN(CC)CCN(C(=O)c1ccc2ccccc2c1)c1nc2ccc(OC)cc2s1
EC50 [2]: > 160 µM (inactive) | EC50 [3]: > 38 µM (not active)

Cc1ccc(-c2cc(-c3ccccc3)nc(N(C)N)n2)cc1
EC50 [1]: 14.6 µM (active) | EC50 (Streptokinase A): > 150 µM (not active) | EC50 (Streptococcus): > 150 µM (not active)

c1ccc(CSc2nnc([C@@H]3CCCN3)o2)cc1
AC50 (Cytochrome P450 2C9): 5.62 µM (inconclusive)

Cc1nc(SCc2nc3cc(C(F)(F)F)ccc3[nH]2)c2oc3ccccc3c2n1
AC50 [6]: 4.11 µM (active)

COc1cc(/C=N/N(c2ccccc2)c2ccccc2)ccc1O
AC50 [6]: 5.16 µM (active)

CCCCc1ccc(N/N=C(\C(C)=O)C(=O)Nc2ccc(NC(C)=O)cc2OC)cc1
AC50 [6]: 3.91 µM (active)

Cc1ccc(-c2nn3c(O)c4c(nc3c2C)CCCC4)cc1
AC50 (Cytochrome P450 2C9): 6.31 µM (inconclusive)

O=C1CN(/N=C/c2ccc([N+](=O)[O-])o2)C(=O)N1 [NITROFURANTOIN]
EC50 [1]: 3.16 µM (active) | EC50 (Streptokinase A): > 150 µM (not active) | EC50 (Streptococcus): 9.83 µM (active)
